Each structure is given as a SMILES string. Read-outs that look alike come from different tables or passages of the source.

IC50 data for 19 molecules are collected here from patent publication US9890139B2, “CYP17 inhibitors/antiandrogens” (Orion Corporation, priority 2013, dated 2018).

One assay has as its target T1, full-length human AR (Homo sapiens, UniProt P10275).
T1 construct: expression vector encoding full-length human AR; expressed in transfected cells; host or cells: HEK293 (hAR/HEK293 cells)
T1 sequence (P10275 1-920): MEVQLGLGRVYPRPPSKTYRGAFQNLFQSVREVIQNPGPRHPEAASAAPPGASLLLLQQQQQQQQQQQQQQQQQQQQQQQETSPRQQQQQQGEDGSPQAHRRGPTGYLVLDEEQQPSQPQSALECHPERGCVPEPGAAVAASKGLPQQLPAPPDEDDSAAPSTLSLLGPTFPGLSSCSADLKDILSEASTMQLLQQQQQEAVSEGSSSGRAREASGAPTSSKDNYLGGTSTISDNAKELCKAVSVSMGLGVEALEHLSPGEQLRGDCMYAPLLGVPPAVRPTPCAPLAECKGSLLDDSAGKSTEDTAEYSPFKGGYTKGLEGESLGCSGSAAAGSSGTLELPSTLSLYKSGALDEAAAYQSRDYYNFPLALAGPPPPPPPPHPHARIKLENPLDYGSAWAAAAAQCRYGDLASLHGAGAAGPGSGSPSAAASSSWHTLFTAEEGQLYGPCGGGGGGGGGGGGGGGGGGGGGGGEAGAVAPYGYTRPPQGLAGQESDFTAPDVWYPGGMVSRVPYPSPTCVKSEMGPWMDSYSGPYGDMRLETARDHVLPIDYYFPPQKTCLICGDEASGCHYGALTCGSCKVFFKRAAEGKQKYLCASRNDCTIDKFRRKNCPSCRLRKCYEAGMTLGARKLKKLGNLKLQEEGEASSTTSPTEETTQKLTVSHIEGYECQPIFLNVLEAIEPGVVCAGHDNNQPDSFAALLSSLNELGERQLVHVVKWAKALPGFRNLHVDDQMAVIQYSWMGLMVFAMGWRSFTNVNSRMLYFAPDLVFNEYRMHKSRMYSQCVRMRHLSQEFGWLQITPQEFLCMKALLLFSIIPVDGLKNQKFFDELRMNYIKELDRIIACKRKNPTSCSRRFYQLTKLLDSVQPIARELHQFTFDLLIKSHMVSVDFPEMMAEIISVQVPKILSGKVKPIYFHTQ
The assay can be described thus: AR antagonism, reporter gene assay in hAR/HEK293 cells. It counts as cell-based. The note with it: HEK293 cells stably transfected with full-length human AR and androgen responsive luciferase reporter; co-treated with submaximal testosterone (usually 0.45 nM); 1% DMSO; triplicates. The method, then: Antagonism of test compounds for AR was measured by reporter gene assay in human embryonic kidney (HEK293) cells stably transfected with an expression vector encoding full-length human AR and androgen responsive luciferase reporter gene construct (hAR/HEK293 cells). To determine antagonism for hAR, the cells were treated simultaneously with increasing concentrations of the test compound and submaximal concentration of testosterone (usually 0.45 nM). The final DMSO concentration was 1%. All test compounds were studied in triplicates. The cells were incubated for […] before measurement of luciferase activity using Luciferase Assay System (Promega Corporation).

Another assay concerns the target T2, 17,20 lyase (CYP17) (Homo sapiens, UniProt P05093).
T2 construct: endogenous in cells; host or cells: H295R human adrenocortical carcinoma cells
T2 sequence (P05093 1-508): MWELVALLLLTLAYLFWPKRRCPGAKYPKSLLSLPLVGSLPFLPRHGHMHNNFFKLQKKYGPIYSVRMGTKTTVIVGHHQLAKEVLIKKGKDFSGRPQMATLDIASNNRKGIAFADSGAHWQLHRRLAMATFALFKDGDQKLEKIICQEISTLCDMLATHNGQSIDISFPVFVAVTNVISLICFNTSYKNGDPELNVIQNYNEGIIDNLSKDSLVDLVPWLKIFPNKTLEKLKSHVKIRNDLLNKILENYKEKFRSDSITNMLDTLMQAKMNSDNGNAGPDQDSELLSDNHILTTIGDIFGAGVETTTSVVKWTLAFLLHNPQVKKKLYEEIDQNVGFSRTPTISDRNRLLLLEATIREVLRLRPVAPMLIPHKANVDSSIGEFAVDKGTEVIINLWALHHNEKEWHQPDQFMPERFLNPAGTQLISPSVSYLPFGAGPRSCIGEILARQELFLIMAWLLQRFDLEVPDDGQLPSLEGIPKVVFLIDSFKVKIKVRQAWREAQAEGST
As to the kind of experiment: 17,20 lyase (CYP17) inhibition, acetic acid release assay (AARA) on H295R cells. It counts as cell-based. The method, then: The ability of the test compounds to inhibit 17,20 lyase catalysed conversion of 17α-hydroxypregnenolone to dehydroepiandrosterone and acetic acid was measured by acetic acid release assay (AARA) on human H295R adrenocortical carcinoma cell line (Grigoryev, D. N. et al., Analytical Biochemistry 1999; 267:319-330). […] The final DMSO concentration was 1%. Cell culture medium was extracted with dextran-coated charcoal suspension (Isomaa, V. et al., Endocrinology 1982; 111(3):833-843). ^3H-acetic acid was determined by mixing 100 μl of supernatant fraction in 200 μl of scintillation fluid (OptiPhase SuperMix, Perkin Elmer). Radioactivity was measured using a Microbeta scintillation counter (1450 MicroBeta Trilux, Wallac). All the test compounds were studied in quadruplicates.

Where [1] appears, read: human H295R adrenocortical carcinoma cells, overnight (16-19 h) with 17α-[21-3H]hydroxypregnenolone, 3H-acetic acid release, 1% DMSO, quadruplicates, read-out: CYP17 inhibition IC50.

As to `CCN(c1ccc(C#N)c(Cl)c1C)C1CCCC(n2ccnc2)C1` (single isomer, unassigned) [Ex. 13, 4-((3-(1H-imidazol-1-yl)cyclohexyl)(ethyl)amino)-2-chloro-3-methylbenzonitrile], the IC50 on full-length human AR was found to be 60 nM; at 17,20 lyase (CYP17), 92 nM.

As for `CCN(c1ccc(C#N)c(C(F)(F)F)c1)C1CC(n2ccnc2)CCC1(C)C` (single isomer, unassigned) [Ex. 46 cis-enantiomer 2, 4-((5-(1H-Imidazol-1-yl)-2,2-dimethylcyclohexyl)(ethyl)amino)-2-(trifluoromethyl)benzonitrile], the IC50 on full-length human AR came out at 40 nM; on 17,20 lyase (CYP17), 49 nM.

On to `CCN(c1ccc(C#N)c(C(F)(F)F)c1)C1CC=C(c2cncn2C(C)C)C1` (single isomer, unassigned) [Ex. 51 enantiomer 2, 4-(Ethyl(3-(1-isopropyl-1H-imidazol-5-yl)cyclopent-3-enyl)amino)-2-(trifluoromethyl)benzonitrile], for which the 50% inhibitory concentration (IC50) turned out to be 17 nM at full-length human AR and 166 nM against 17,20 lyase (CYP17).

`CCN(c1ccc(C#N)c(C(F)(F)F)c1)C1CCC(n2ccnc2)C1` (single isomer, unassigned) [Ex. 86 trans-enantiomer 1, 4-((-3-(1H-imidazol-1-yl)cyclopentyl)(ethyl)amino)-2-(trifluoromethyl)benzonitrile]: the IC50 was found to be 73 nM on full-length human AR and 27 nM at 17,20 lyase (CYP17).

Consider `Cc1nc(N(C)C2C=C(n3ccnc3)CCC2(C)C)ccc1[N+](=O)[O-]` (single isomer, unassigned) [Ex. 203 enantiomer 1, N-[3-(1H-Imidazol-1-yl)-6,6-dimethylcyclohex-2-enyl]-N,6-dimethyl-5-nitropyridin-2-amine], for which the IC50 at full-length human AR is 17 nM; at 17,20 lyase (CYP17) (setting [1]) it was 16 nM.

Take `CCN(c1ccc(C#N)c(C(F)(F)F)c1)C1CC=C(c2cnco2)C1` (single isomer, unassigned) [Ex. 233 enantiomer 1, 4-(Ethyl(3-(oxazol-5-yl)cyclopent-3-enyl)amino)-2-(trifluoromethyl)benzonitrile]: the IC50 was determined as 59 nM on full-length human AR and 66 nM at 17,20 lyase (CYP17).

For the molecule `CN(c1ccc(C#N)c(C(F)F)c1)C1C=C(n2ccnc2)CCC1(C)C` (single isomer, unassigned) [Ex. 240(b), 4-((3-(1H-imidazol-1-yl)-6,6-dimethylcyclohex-2-enyl)(methyl)amino)-2-(difluoromethyl)benzonitrile (pure enantiomer)], the IC50 came out at 52 nM on full-length human AR and 33 nM on 17,20 lyase (CYP17) (setting [1]).

As for `CCN(c1ccc(C#N)c(C(F)(F)F)c1)C1CC(CO)=C(n2ccnc2)C1(C)C` (single isomer, unassigned) [Ex. 270 enantiomer 1, 4-(Ethyl(4-(hydroxymethyl)-3-(1H-imidazol-1-yl)-2,2-dimethylcyclopent-3-en-1-yl)amino)-2-(trifluoromethyl)benzonitrile], the values for the IC50 on full-length human AR and against 17,20 lyase (CYP17) were 56 nM and 321 nM, respectively.

In the case of `CCN(c1ccc(C#N)c(Cl)c1)C1CCCC(n2ccnc2)C1` (single isomer, unassigned; diastereomer 4) [Ex. 91 cis-diastereomer, 4-((3-(1H-imidazol-1-yl)cyclohexyl)(ethyl)amino)-2-chlorobenzonitrile], the IC50 came to 64 nM at full-length human AR and 36 nM against 17,20 lyase (CYP17).

Consider `CCN(c1ccc(C#N)c(C(F)(F)F)c1)C1CCCC(n2cncn2)C1` (single isomer, unassigned; diastereomer 4) [Ex. 209 cis-diastereomer, 4-((3-(1H-1,2,4-triazol-1-yl)cyclohexyl)(ethyl)amino)-2-(trifluoromethyl)-benzonitrile], for which the IC50 at full-length human AR is 56 nM; at 17,20 lyase (CYP17) it was 154 nM.

For `CCN(c1ccc(C#N)c(Cl)c1)C1C=C(n2ccnc2)CCC1(C)C` (single isomer, unassigned; enantiomer 1) [Ex. 21, 4-((3-(1H-imidazol-1-yl)-6,6-dimethylcyclohex-2-enyl)(ethyl)amino)-2-chlorobenzonitrile (enantiomer 1)], the IC50 on full-length human AR is 19 nM; on 17,20 lyase (CYP17) it was 76 nM.

On to `CN(c1ccc(C#N)c(Cl)c1)[C@@H]1C=C(n2ccnc2)[C@H](O)CC1(C)C` (single isomer, unassigned; enantiomer 1) [Ex. 253(b), cis-2-Chloro-4-{[4-hydroxy-3-(1H-imidazol-1-yl)-6,6-dimethylcyclohex-2-enyl](methyl)amino}benzonitrile (enantiomer 1)], for which the IC50 turned out to be 140 nM at full-length human AR and 124 nM against 17,20 lyase (CYP17).

As for `CCN(c1ccc(C#N)c(C(F)(F)F)c1)C1CCC=C(c2ccncc2OC)C1` (single isomer, unassigned; isomer 4) [Ex. 84 3,4-isomer, 4-(Ethyl(3-(3-methoxypyridin-4-yl)cyclohex-3-en-1-yl)amino)-2-(trifluoromethyl)benzonitrile], the IC50 at full-length human AR worked out at 50 nM; against 17,20 lyase (CYP17), 96 nM.

Consider `CCN(c1ccc(C#N)c(C(F)(F)F)c1)C1CCC=C(c2cncn2CC)C1` (single isomer, unassigned; isomer 4) [Ex. 208 1,5-isomer, 4-(ethyl(3-(1-ethyl-1H-imidazol-5-yl)cyclohex-3-en-1-yl)-amino)-2-(trifluoromethyl)benzonitrile], for which the IC50 on full-length human AR came out at 34 nM; against 17,20 lyase (CYP17), 137 nM.

In the case of `CCN(c1ccc(C#N)c(C(F)(F)F)c1)C1C=C(n2ccnc2)CCC1` (centres unmarked) [Ex. 63, 4-((3-(1H-imidazol-1-yl)cyclohex-2-en-1-yl)(ethyl)amino)-2-(trifluoromethyl)benzonitrile], the IC50 at full-length human AR stood at 34 nM; at 17,20 lyase (CYP17) it was 70 nM.

`CCCn1cncc1C1=CCC(N(CC)c2ccc(C#N)c(C(F)(F)F)c2)C1` (centres unmarked) [Ex. 103, 4-(Ethyl(3-(1-propyl-1H-imidazol-5-yl)cyclopent-3-en-1-yl)amino)-2-(trifluoromethyl)benzonitrile]: the IC50 came out at 58 nM on full-length human AR and 29 nM on 17,20 lyase (CYP17).

On to `CCN(c1ccc(C#N)c(C(F)(F)F)c1)C1C=C(n2ccnc2)C2(CC1)CC2` (centres unmarked) [Ex. 107, 4-((4-(1H-imidazol-1-yl)spiro[2.5]oct-4-en-6-yl)(ethyl)amino)-2-(trifluoromethyl)benzonitrile], for which the IC50 is 51 nM on full-length human AR and 33 nM on 17,20 lyase (CYP17).

Take `CCN(c1ccc(C#N)c(C(F)(F)F)c1)[C@@H]1CCCN(c2ccncc2F)C1` [Ex. 160, (R)-4-(Ethyl(1-(3-fluoropyridin-4-yl)piperidin-3-yl)amino)-2-(trifluoromethyl)benzonitrile]: the IC50 was 27 nM on full-length human AR and 111 nM against 17,20 lyase (CYP17).

Take `CN(c1ccc(C#N)c(C(F)(F)F)n1)C1C=C(n2ccnc2)CCC1(C)C` (centres unmarked) [Ex. 250, 6-{[3-(1H-Imidazol-1-yl)-6,6-dimethylcyclohex-2-enyl](methyl)amino}-2-(trifluoromethyl)nicotinonitrile]: the IC50 is 205 nM at full-length human AR and 27 nM at 17,20 lyase (CYP17) (setting [1]).
